Test results published in PMC10743653, “Combined In Silico and In Vitro Analyses to Assess the Anticancer Potential of Thiazolidinedione–Thiosemicarbazone Hybrid Molecules” (International Journal of Molecular Sciences, 2023).

Tests used:
Assay type in all cases: cell-based, human
HepG2 cells [1] = experiment: ECM cell invasion assay (colorimetric), HepG2
Description: The anti-invasion effects of 2 and 3 were examined using a Cell Invasion Assay Kit (ECM550, CHEMICON—Millipore Co., Billerica, MA, USA). In brief, 10^5 tumor cells were suspended in medium with 10% FBS and plated into the upper chamber, containing 8 μm pore size polycarbonate membrane precoated with ECMatrix, followed by filling the lower chamber with the same medium, enriched with the investigated compounds. Afterwards, cells were incubated for 24 h and allowed to invade towards the bottom chamber (with medium + 10% FBS). The non-invading cells on the upper membrane surface were removed with a cotton swab and the invasive cells, i.e., cells attached to the lower membrane surface, were stained with 0.1% crystal violet. For colorimetric quantitation, the stained cells were dissolved in 10% acetic acid (200 μL/well) and the obtained solution was transferred to a 96-well plate for spectrometric measurements, at a wavelength of 560 nm.

HepG2 cells [2] = experiment: Cell migration (wound healing) assay, HepG2; details: HepG2, IC50 doses (2: 10.39 μM; 3: 2.97 μM), 24 h
Description: The possible anti-migratory effect of 2 and 3 was examined against HepG2 and T98G cells, which most effectively responded to TZD–TSC treatment. The ability of cells to cover the scratched area was monitored after 24 h of incubation with compounds 2 and 3. […] Thus, we can conclude that the anticancer potential of the investigated compounds is enriched by their anti-metastatic effect.
Cell migration ability was evaluated according to a wound healing assay. On the day of the experiment, HepG2 and T98G cells were collected from monolayers using trypsin/EDTA and seeded on 6-well plates at a density of 1 × 10^5 cells mL^−1. After 24 h, when the confluence of cells reached about 80%, a vertical linear scratch was created in the monolayer with a sterile pipette tip. The cells were washed three times with a phosphate-buffered saline (PBS) to remove all cellular debris. […] The open wound area was measured with the NIH ImageJ software version 1.53t (Bethesda, Rockville, MD, USA). The percentage of wound closure was calculated using the following formula [81]: Wound closure (%)=open wound area at 0 h −open wound area at 24 h or 48 h/open wound area at 0 h×100%

HepG2 cells [3] = experiment: Cell cycle analysis (image cytometry, DAPI); details: 24 h at IC50 concentration (2.97 μM); control 6.02 ± 0.21%; mean ± SD
Description: HDAC inhibitors, in combination therapy with PPARγ agonists, exert synergistic/additive cytotoxic effects on cancer cells, resulting in proliferation arrest and increased cancerous cell apoptosis.
HepG2 cells were seeded on 6-well culture plates (Corning Inc., NY, USA) at the density of 1 × 10^5 cells/mL and cultured in the respective medium at 37 °C in a humidified atmosphere of 5% CO2. When the cells reached approximately 80–90% confluence, they were treated with 3, at a concentration of IC50, for 24 h. Subsequently, the cells were detached with trypsine, suspended in 250 μL of lysis buffer (Solution 10), supplemented with DAPI (10 μg/mL), and incubated for 5 min at 37 °C. Next, stabilization buffer (Solution 11) was added and the obtained cell suspension was applied on a NC slide and analyzed using a NucleoCounter NC-3000 Image Cytometer equipped with NucleoView software (https://chemometec.com/software/nucleoview/ (accessed on 20 November 2023). Experiments were repeated three times and the measurements in each experiment were run in duplicate.

| SMILES | Invasion through artificial ECM model (HepG2 cells [1]; HepG2, 1/10 IC50 to IC50, 24 h) | Invasion through artificial ECM model (HepG2 cells [1]; HepG2, lowest concentration tested (1/10 of the IC50), 24 h) | Migration of cancer cells (wound healing) (HepG2 cells [2]) | Percentage of HepG2 cells in sub-G1 phase (HepG2 cells [3]) [%] |
| --- | --- | --- | --- | --- |
| O=C(C=C1SC(=O)NC1=O)Oc1ccccc1C=NNC(=S)Nc1ccccc1Cl [TZD–TSC 2] | exhibited inhibitory effects | did not reduce the number of invaded cells | almost completely suppressed | – |
| O=C(C=C1SC(=O)NC1=O)Oc1ccccc1C=NNC(=S)Nc1cccc(Cl)c1 [TZD–TSC 3] | exhibited inhibitory effects | – | almost completely suppressed | 40.36 ± 3.11 |
